These results are taken from US9265253B2, “Use of macrocyclic picolinamides as fungicides” (DOW AGROSCIENCES LLC, priority 2013, dated 2016).

What all share (assay type): in vivo
Assay [1] concerns Uncinula necator. Put plainly: Grape Powdery Mildew (UNCINE) disease control. As to conditions: Erysiphe necator, topical, 24 h, 1 Day Protectant, read-out: Disease Control UNCINE 1 DP. The method, then:
Technical grades of materials were dissolved in acetone, which were then mixed with nine volumes of water containing 110 ppm Triton X-100. The fungicide solutions were applied onto wheat seedlings using an automated booth sprayer to run-off. All sprayed plants were allowed to air dry prior to further handling. All fungicides were evaluated using the aforementioned method for their activity vs. all target diseases. Wheat leaf blotch and brown rust activity were also evaluated using track spray applications, in which case the fungicides were formulated as EC formulations, containing 0.1% Trycol 5941 in the spray solutions. Wheat plants (variety Yuma) were grown from seed in a greenhouse in 50% mineral soil/50% soil-less Metro mix until the first leaf was fully emerged, with 7-10 seedlings per pot. These plants were inoculated with an aqueous spore suspension of Septoria tritici either prior to or after fungicide treatments. After inoculation the plants were kept in 100% relative humidity (one day in a dark dew chamber followed by two to three days in a lighted dew chamber at 20° C.) to permit spores to germinate and infect the leaf. The plants were then transferred to a greenhouse set at 20° C. for disease to develop. When disease symptoms were fully expressed on the 1st leaves of untreated plants, infection levels were assessed on a scale of 0 to 100 percent disease severity. Percent disease control was calculated using the ratio of disease severity on treated plants relative to untreated plants. Grape seedlings (variety Carignane) were grown in soil-less Metro mix, with one plant per pot, and used in the test when approximately one month old. Plants were inoculated 24 hr after fungicide treatment by shaking spores from infected leaves over test plants. Plants were maintained in a greenhouse set at 20° C. until disease was fully developed. Fungicide formulation, application and disease assessment on the sprayed leaves followed the procedures as described in the Example A.

Assay [2] has as its system Rhyncosporium secalis. Nature of the assay: Barley Scald (RHYNSE) disease control. As to conditions: Hordeum vulgare, 24 h, 1 Day Protectant, read-out: Disease Control RHYNSE 1 DP. How it is done: Technical grades of materials were dissolved in acetone, which were then mixed with nine volumes of water containing 110 ppm Triton X-100. The fungicide solutions were applied onto wheat seedlings using an automated booth sprayer to run-off. All sprayed plants were allowed to air dry prior to further handling. All fungicides were evaluated using the aforementioned method for their activity vs. all target diseases. Wheat leaf blotch and brown rust activity were also evaluated using track spray applications, in which case the fungicides were formulated as EC formulations, containing 0.1% Trycol 5941 in the spray solutions. Wheat plants (variety Yuma) were grown from seed in a greenhouse in 50% mineral soil/50% soil-less Metro mix until the first leaf was fully emerged, with 7-10 seedlings per pot. These plants were inoculated with an aqueous spore suspension of Septoria tritici either prior to or after fungicide treatments. After inoculation the plants were kept in 100% relative humidity (one day in a dark dew chamber followed by two to three days in a lighted dew chamber at 20° C.) to permit spores to germinate and infect the leaf. The plants were then transferred to a greenhouse set at 20° C. for disease to develop. When disease symptoms were fully expressed on the 1st leaves of untreated plants, infection levels were assessed on a scale of 0 to 100 percent disease severity. Percent disease control was calculated using the ratio of disease severity on treated plants relative to untreated plants. Barley seedlings (variety Harrington) were propagated in soil-less Metro mix, with each pot having 8 to 12 plants, and used in the test when first leaf was fully emerged. Test plants were inoculated by an aqueous spore suspension of Rhyncosporium secalis 24 hr after fungicide treatments. After inoculation the plants were kept in a dew room at 20° C. with 100% relative humidity for 48 hr. The plants were then transferred to a greenhouse set at 20° C. for disease to develop. Fungicide formulation, application and disease assessment on the sprayed leaves followed the procedures as described in the Example A.

Assay [3] has as its system Glomerella lagenarium; Anamorph: Colletotrichum lagenarium. Nature of the assay: Cucumber Anthracnose (COLLLA) disease control. The settings on record: Colletotrichum orbiculare, topical, 24 h, 1 Day Protectant, read-out: Disease Control COLLLA 1 DP. The method, then:
Technical grades of materials were dissolved in acetone, which were then mixed with nine volumes of water containing 110 ppm Triton X-100. The fungicide solutions were applied onto wheat seedlings using an automated booth sprayer to run-off. All sprayed plants were allowed to air dry prior to further handling. All fungicides were evaluated using the aforementioned method for their activity vs. all target diseases. Wheat leaf blotch and brown rust activity were also evaluated using track spray applications, in which case the fungicides were formulated as EC formulations, containing 0.1% Trycol 5941 in the spray solutions. Wheat plants (variety Yuma) were grown from seed in a greenhouse in 50% mineral soil/50% soil-less Metro mix until the first leaf was fully emerged, with 7-10 seedlings per pot. These plants were inoculated with an aqueous spore suspension of Septoria tritici either prior to or after fungicide treatments. After inoculation the plants were kept in 100% relative humidity (one day in a dark dew chamber followed by two to three days in a lighted dew chamber at 20° C.) to permit spores to germinate and infect the leaf. The plants were then transferred to a greenhouse set at 20° C. for disease to develop. When disease symptoms were fully expressed on the 1st leaves of untreated plants, infection levels were assessed on a scale of 0 to 100 percent disease severity. Percent disease control was calculated using the ratio of disease severity on treated plants relative to untreated plants. Cucumber seedlings (variety Bush Pickle) were propagated in soil-less Metro mix, with each pot having one plant, and used in the test when 12 to 14 days old. Test plants were inoculated with an aqueous spore suspension of Colletotrichum lagenarium 24 hr after fungicide treatments. After inoculation the plants were kept in a dew room at 22° C. with 100% relative humidity for 48 hr to permit spores to germinate and infect the leaf. The plants were then transferred to a growth room set at 22° C. for disease to develop. Fungicide formulation, application and disease assessment on the sprayed leaves followed the procedures as described in the Example A.

The subject of assay [4] is Venturia inaequalis. Put plainly: Apple Scab (VENTIN) disease control. The settings on record: Venturia inaequalis, topical, 24 h, 1 Day Protectant, read-out: Disease Control VENTIN 1 DP. How it is done:
Technical grades of materials were dissolved in acetone, which were then mixed with nine volumes of water containing 110 ppm Triton X-100. The fungicide solutions were applied onto wheat seedlings using an automated booth sprayer to run-off. All sprayed plants were allowed to air dry prior to further handling. All fungicides were evaluated using the aforementioned method for their activity vs. all target diseases. Wheat leaf blotch and brown rust activity were also evaluated using track spray applications, in which case the fungicides were formulated as EC formulations, containing 0.1% Trycol 5941 in the spray solutions. Wheat plants (variety Yuma) were grown from seed in a greenhouse in 50% mineral soil/50% soil-less Metro mix until the first leaf was fully emerged, with 7-10 seedlings per pot. These plants were inoculated with an aqueous spore suspension of Septoria tritici either prior to or after fungicide treatments. After inoculation the plants were kept in 100% relative humidity (one day in a dark dew chamber followed by two to three days in a lighted dew chamber at 20° C.) to permit spores to germinate and infect the leaf. The plants were then transferred to a greenhouse set at 20° C. for disease to develop. When disease symptoms were fully expressed on the 1st leaves of untreated plants, infection levels were assessed on a scale of 0 to 100 percent disease severity. Percent disease control was calculated using the ratio of disease severity on treated plants relative to untreated plants. Apple seedlings (variety McIntosh) were grown in soil-less Metro mix, with one plant per pot. Seedlings with two expanding young leaves at the top (older leaves at bottom of the plants were trimmed) were used in the test. Plants were inoculated with a spore suspension of Venturia inaequalis 24 hr after fungicide treatment and kept in a 22° C. dew chamber with 100% RH for 48 hr, and then moved to a greenhouse set at 20° C. for disease to develop. Fungicide formulation, application and disease assessment on the sprayed leaves followed the procedures as described in the Example A.

Regarding `CCO[C@@H]1[C@@H](Cc2ccccc2)CCC[C@H](NC(=O)c2nccc(OC)c2OC(C)=O)C(=O)O[C@H]1C` [Compound F87], the pest or weed control at 100 ppm in assay [1], in assay [2] and in assay [3] was 80 to 100% throughout.

On to `COc1ccnc(C(=O)N[C@H]2CCC[C@H](Cc3ccccc3)[C@@H](OCC(C)C)[C@H](C)OC2=O)c1OCOC(=O)C(C)C` [Compound F151], for which the pest or weed control at 100 ppm in assay [4] lay within 0 to 80%; in assay [3], 80 to 100%.

For the compound `COc1ccnc(C(=O)N[C@H]2CCC[C@H](CCBr)[C@@H](Oc3ccccc3)[C@H](C)OC2=O)c1OC(C)=O` [Compound F80], the pest or weed control at 100 ppm is 0 to 80% in assay [4], 0 to 80% in assay [1] and 80 to 100% in assay [3].

As for `COc1ccc(C[C@H]2CCC[C@H](NC(=O)c3nccc(OC)c3OCOC(C)=O)C(=O)O[C@@H](C)[C@@H]2OCC(C)C)cc1` [Compound F118], the pest or weed control at 100 ppm in assay [2] and in assay [3] was 80 to 100% throughout.

In the case of `COc1ccnc(C(=O)N[C@H]2CCC[C@H](Cc3ccc(C)cc3)[C@@H](OCC(C)C)[C@H](C)OC2=O)c1OCOC(C)=O` [Compound F126], the pest or weed control at 100 ppm in assay [2] and in assay [3] was 80 to 100% in each case.

Turning to `CCCO[C@@H]1[C@@H](Cc2ccc(F)cc2)CCC[C@H](NC(=O)c2nccc(OC)c2OCOC(C)=O)C(=O)O[C@H]1C` [Compound F101], the pest or weed control at 100 ppm in assay [1], in assay [2] and in assay [3] was 80 to 100% throughout.

Turning to `COc1ccc(C[C@H]2CCC[C@H](NC(=O)c3nccc(OC)c3OCOC(C)=O)C(=O)O[C@@H](C)[C@@H]2Oc2ccccc2)cc1` [Compound F114], the pest or weed control at 100 ppm in assay [2] and in assay [3] was 80 to 100% in each case.

For the compound `COc1ccnc(C(=O)N[C@H]2CCC[C@H](Cc3ccccc3)[C@@H](OCC3CC3)[C@H](C)OC2=O)c1OCOC(=O)C(C)C` [Compound F152], the results for the pest or weed control at 100 ppm in assay [1], in assay [2] and in assay [3] were 0 to 80%, 80 to 100% and 80 to 100%, respectively.

Take `CCCO[C@@H]1[C@@H](Cc2ccc(OC)cc2)CCC[C@H](NC(=O)c2nccc(OC)c2OCOC(C)=O)C(=O)O[C@H]1C` [Compound F119]: the pest or weed control at 100 ppm in assay [2] and in assay [3] was 80 to 100% each time.

With `CCOCC(=O)OCOc1c(OC)ccnc1C(=O)N[C@H]1CCC[C@H](CC2CCCCC2)[C@@H](OCC(C)C)[C@H](C)OC1=O` [Compound F175], the pest or weed control at 100 ppm in assay [1] is 0 to 80%; in assay [2], 80 to 100%.

With `CCOCC(=O)OCOc1c(OC)ccnc1C(=O)N[C@H]1CCC[C@H](Cc2ccccc2)[C@@H](OCC2CC2)[C@H](C)OC1=O` [Compound F173], the pest or weed control at 100 ppm was 0 to 80% in assay [1], 80 to 100% in assay [2] and 80 to 100% in assay [3].

Consider `COc1ccnc(C(=O)N[C@H]2CCC[C@H](CC3CCCCC3)[C@@H](OCC(C)C)[C@H](C)OC2=O)c1OCOC(C)=O` [Compound F113], for which the pest or weed control at 100 ppm in assay [1] was in the range of 0 to 80%; in assay [2] it was 80 to 100%.

With `CCCO[C@@H]1[C@@H](Cc2ccccc2)CCC[C@H](NC(=O)c2nccc(OC)c2OC(C)=O)C(=O)O[C@H]1C` [Compound F88], the pest or weed control at 100 ppm in assay [1], in assay [2] and in assay [3] was 80 to 100% in each case.

On to `COc1ccnc(C(=O)N[C@H]2CCC[C@H](Cc3ccc(F)cc3)[C@@H](OCC(C)C)[C@H](C)OC2=O)c1OCOC(C)=O` [Compound F102], for which the pest or weed control at 100 ppm in assay [1] is 0 to 80%; in assay [3] it was 80 to 100%.

Take `COc1ccnc(C(=O)N[C@H]2CCC[C@H](Cc3ccccc3)[C@@H](OC3CCCC3)[C@H](C)OC2=O)c1OCOC(C)=O` [Compound F110]: the values for the pest or weed control at 100 ppm in assay [4], in assay [1] and in assay [2] were 0 to 80%, 80 to 100% and 80 to 100%, respectively.

With `CCOCC(=O)OCOc1c(OC)ccnc1C(=O)N[C@H]1CCC[C@H](CCF)[C@@H](OCC(C)C)[C@H](C)OC1=O` [Compound F181], the pest or weed control at 100 ppm lay in the range of 0 to 80% in assay [1], 0 to 80% in assay [2] and 80 to 100% in assay [3].

Consider `COc1ccnc(C(=O)N[C@H]2CCC[C@H](Cc3ccccc3)[C@@H](OCC3CC3)[C@H](C)OC2=O)c1OCOC(C)=O` [Compound F107], for which the pest or weed control at 100 ppm lay within 0 to 80% in assay [1], 80 to 100% in assay [2] and 80 to 100% in assay [3].

In the case of `CCCO[C@@H]1[C@@H](Cc2ccccc2)CCC[C@H](NC(=O)c2nccc(OC)c2OC(=O)CCOC)C(=O)O[C@H]1C` [Compound F198], the pest or weed control at 100 ppm in assay [1], in assay [2] and in assay [3] was 80 to 100% in each case.

For the compound `CCOCC(=O)OCOc1c(OC)ccnc1C(=O)N[C@H]1CCC[C@H](Cc2ccc(F)cc2)[C@@H](OCC(C)C)[C@H](C)OC1=O` [Compound F168], the pest or weed control at 100 ppm in assay [1] and in assay [3] was 80 to 100% throughout.
